Assay results taken from BindingDB's records for doi:10.1074/jbc.M608182200 (Johnson & Johnson Pharmaceutical, 2007).

Assays:
Test in all cases: cFMs Autophosphorylation Fluorescence Polarization End Point Assay.
Settings in all cases: pH 7.5; 22 °C
[1] = biological target: T1, Macrophage colony-stimulating factor 1 receptor [538-678,753-922] (Homo sapiens, UniProt P07333)
T1 construct: 538-678,753-922
T1 sequence (P07333 whole entry): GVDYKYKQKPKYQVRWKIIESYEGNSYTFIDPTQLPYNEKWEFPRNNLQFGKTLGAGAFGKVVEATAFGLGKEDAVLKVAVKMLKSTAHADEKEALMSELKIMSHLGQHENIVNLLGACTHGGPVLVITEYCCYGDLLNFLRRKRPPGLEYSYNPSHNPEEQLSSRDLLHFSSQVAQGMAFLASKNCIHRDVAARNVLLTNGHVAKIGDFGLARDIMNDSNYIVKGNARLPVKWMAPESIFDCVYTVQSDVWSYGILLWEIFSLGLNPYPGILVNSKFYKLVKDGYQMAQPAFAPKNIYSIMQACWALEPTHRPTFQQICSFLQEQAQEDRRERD
Procedure: (§1) Control reactions were run in each plate. Assay buffer was substituted for the compound in positive and negative control wells. The fluorescence polarization was measured after 30 min of incubation. […] The IC50 values reported are the averages of three independent measurements.

[2] = biological target: T2, Macrophage colony-stimulating factor 1 receptor [538-972] (UniProt P07333)
T2 construct: 538-972
T2 sequence (P07333 whole entry): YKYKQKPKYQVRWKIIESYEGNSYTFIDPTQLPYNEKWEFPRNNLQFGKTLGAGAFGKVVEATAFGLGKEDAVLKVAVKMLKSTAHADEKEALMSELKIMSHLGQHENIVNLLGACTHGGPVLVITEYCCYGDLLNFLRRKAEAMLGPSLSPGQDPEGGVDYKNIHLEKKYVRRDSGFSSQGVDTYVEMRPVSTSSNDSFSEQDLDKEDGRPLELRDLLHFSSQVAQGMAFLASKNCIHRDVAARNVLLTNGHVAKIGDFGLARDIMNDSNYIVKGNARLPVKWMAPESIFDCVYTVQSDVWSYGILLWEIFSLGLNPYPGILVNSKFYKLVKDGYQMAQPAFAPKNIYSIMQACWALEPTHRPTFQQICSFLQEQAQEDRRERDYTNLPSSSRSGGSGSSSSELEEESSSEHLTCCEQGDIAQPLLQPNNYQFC
Procedure: as §1

[3] = biological target: T3, Macrophage colony-stimulating factor 1 receptor [538-678,753-922] (Homo sapiens, UniProt P07333); remark: listed apart in the source
T3 construct: 538-678,753-922
T3 sequence (P07333 whole entry): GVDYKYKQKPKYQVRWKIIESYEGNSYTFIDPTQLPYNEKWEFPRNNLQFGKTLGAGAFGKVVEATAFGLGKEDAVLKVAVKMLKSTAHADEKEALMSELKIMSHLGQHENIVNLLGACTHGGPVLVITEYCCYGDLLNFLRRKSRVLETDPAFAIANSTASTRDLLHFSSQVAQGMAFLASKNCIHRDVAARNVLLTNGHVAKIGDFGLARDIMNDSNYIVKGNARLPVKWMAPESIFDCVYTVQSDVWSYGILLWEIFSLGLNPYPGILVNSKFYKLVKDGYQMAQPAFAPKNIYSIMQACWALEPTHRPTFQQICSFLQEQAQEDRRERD
Procedure: as §1

IC50 [1] [µM] | IC50 [2] [µM] | IC50 [3] [µM] | SMILES
1.2 | 1.2 | 1.3 | CN(C)CCNC(=O)N1CCN(Cc2cc(C(F)(F)F)cc(C(F)(F)F)c2)CC1 [JNJ31117164]
4.2 | 4.8 | 4.5 | O=Nc1c(C2C(=O)Nc3ccccc32)[nH]c2ccccc12 (configuration not stated) [Indirubin-3 -monoxime]
9.4 | 10 | 8.3 | Cc1cc2ncc(-c3ccc(O)c(O)c3)nc2cc1C [2-(3,4-Dihydroxyphenyl)-6,7-dimethylquinoxaline]

SMILES | IC50 [1] [µM] | IC50 [2] [µM] | IC50 [3] [µM]
N#C/C(=C\c1ccc(O)c(O)c1)C(N)=S [alpha-Cyano-(3,4-dihydroxy)thiocinnamide] | 3 | 2.9 | 3.3
